Results: publication PMC7169845, “Synthesis and Bioactivity of Phthalimide Analogs as Potential Drugs to Treat Schistosomiasis, a Neglected Disease of Poverty” (Pharmaceuticals, 2020)

How the values were obtained:
[1] = test system: HepG2-A16-CD81EGFP cells; assay: HepG2 cell cytotoxicity assay (CellTiter-Glo); assay type: cell-based; details: Homo sapiens, 72 h; for EC50: counter toxicity
Experimental: HepG2-A16-CD81EGFP cells (human hepatocarcinoma HepG2 cells stably transformed to express the tetraspanin CD81 receptor [51, 52]) were cultured at 37 °C in 5% CO2 in DMEM (without phenol red; Thermo Fisher Scientific, Waltham, MA, USA) supplemented with 10% FBS, 0.29 mg/mL glutamine, 100-unit penicillin and 100 μg/mL streptomycin. For cytotoxicity assays, compounds were prepared in 12-point 1:3 serial dilutions in DMSO starting at 10 mM. Then, 50 nL of compound (0.5% final DMSO concentration) were transferred with an Acoustic Transfer System (ATS) (Biosero) into white, solid bottom 1536-well assay plates (Greiner BioOne custom GNF mold; Monroe, NC, USA). Puromycin (12-point serial dilution starting at 10 μM) and 0.5% DMSO were used as positive and negative controls, respectively. After addition of compound, HepG2-A16-CD81EGFP cells in 10 µL of the above medium (5% FBS) were seeded into the assay plates at a density of 3,000 cells per well. Assay plates were incubated at 37 °C in 5% CO2for 72 h. To assess the HepG2 viability, the assay medium was removed by inverted centrifugation of the plate at 150 xg for 30 s. Then, 2 μL per well of CellTiter-Glo reagent (Promega diluted 1:2 with deionized water) was added using a MicroFlo liquid handler (BioTek). Immediately after addition of the CellTiter-Glo reagent, the luminescence was measured with an EnVision Multilabel reader (PerkinElmer). EC50 values were calculated using the normalized bioluminescence intensity and a non-linear, variable slope, four-parameter regression curve-fitting model in Prism 5 (GraphPad Software Inc., San Diego, CA, USA).

[2] = test system: S. mansoni adults; assay: Phenotypic screen of S. mansoni adult worms (severity score); assay type: cell-based, Schistosoma mansoni; details: for ADULT SEVERITY SCORES @ 10 µM, 1 h / ADULT SEVERITY SCORES @ 10 µM, 5 h / ADULT SEVERITY SCORES @ 10 µM, 24 h: score 0-4; for Adult Severity Score (10 µM) 1 h / Adult Severity Score (10 µM) 5 h / Adult Severity Score (10 µM) 24 h: score 0 to 4
Experimental: (§1) Functionalized Pht-based molecules were synthesized, and phenotypically screened at 10 µM as a function of time against S. Mansoni somules (up to 72 h) and adults (up to 24 h). The resulting phenotypes were classified using a previously described nomenclature that records the many non-exclusive changes (descriptors) that can occur in the parasite in response to chemical insult. Each descriptor is converted into a value from 0 (no effect) to 4 (maximal effect) to allow for comparisons of effects on the parasite between compounds [40, 41, 42, 43]. For consistency, we consider a score of 2 to be the minimum for a compound to be considered active.
(§2) Maintenance of the S. mansoni (Naval Medical Research Institute (NMRI) isolate), life cycle involved male Golden Syrian Hamsters and Biomphalaria glabrata snails (NMRI isolate), as the definitive and intermediate hosts, respectively. Use of hamsters was approved by the Institutional Animal Care and Use Committee of the University of California San Diego. The preparation of somules (post-infective larvae derived from infectious larvae called cercariae) and adult worms (≥42-days-old), and their co-incubation with test compounds using a customized Basch incubation medium were as described. Screens of two developmental stages were employed in order to identify compounds with a potential broader spectrum of efficacy than the current drug, PZQ, which is deficient in this regard. Screens with somules employed 96-well round-bottomed plates and 40–50 animals/well, whereas screens with adults employed 24-well flat-bottomed plates and approximately 5–7 males and 2–3 females/well. Screens employed a final compound concentration of 10 µM in DMSO (at 0.5% and 0.1% final concentrations for somules and adults, respectively). The complex and often dynamic phenotypic responses that the schistosome parasite is capable of were observed using an Axiovert A1 inverted microscope at the times indicated in the data table. Observations were codified using a defined nomenclature that involves simple “descriptors”, to convey changes in shape, motility and appearance compared to DMSO controls. Each descriptor was given a value of 1 and these were added up to yield a “severity score” with a maximum of 4. Evidence of degeneracy or death was awarded a value of 4 for adult parasites specifically, the inability to adhere to the bottom of the well using oral or ventral suckers was given a score of 1 and damage to the tegument (surface) was awarded a value of 4 on the understanding that such damage in vivo would compromise survival. Scores were averaged across the two experiments.

[3] = test system: S. mansoni somules (schistosomula, post-infective larvae); assay: Phenotypic screen of S. mansoni somules (severity score); assay type: cell-based, Schistosoma mansoni; details: for Somule Severity Score (10 µM) 24 h: score 0 (no effect) to 4 (maximum), averaged across two experiments; for Somule Severity Score (10 µM) 24 h / SOMULE SEVERITY SCORES @ 10 µM, 24: 24 h; for SOMULE SEVERITY SCORES @ 10 µM, 24 / SOMULE SEVERITY SCORES @ 10 µM, 48 / SOMULE SEVERITY SCORES @ 10 µM, 72: score 0-4; for SOMULE SEVERITY SCORES @ 10 µM, 48 / Somule Severity Score (10 µM) 48 h: 48 h; for Somule Severity Score (10 µM) 48 h / Somule Severity Score (10 µM) 72 h: score 0 to 4
Experimental: as §1, §2

Row | Structure (SMILES) | IC50 [1] [µM] | EC50 [1] [µM] | ADULT SEVERITY SCORES @ 10 µM, 1 h [2] | Adult Severity Score (10 µM) 1 h [2] | ADULT SEVERITY SCORES @ 10 µM, 5 h ([2]; 5 h) | Adult Severity Score (10 µM) 5 h ([2]; 5 h) | ADULT SEVERITY SCORES @ 10 µM, 24 h ([2]; 24 h) | Adult Severity Score (10 µM) 24 h ([2]; 24 h) | Somule Severity Score (10 µM) 24 h [3] | SOMULE SEVERITY SCORES @ 10 µM, 24 [3] | SOMULE SEVERITY SCORES @ 10 µM, 48 [3] | Somule Severity Score (10 µM) 48 h [3] | SOMULE SEVERITY SCORES @ 10 µM, 72 ([3]; 72 h) | Somule Severity Score (10 µM) 72 h ([3]; 72 h) | ADULT DESCRIPTORS @ 10 µM, 5 h ([2]; 5 h, phenotypic descriptors) | ADULT DESCRIPTORS @ 10 µM, 24 h ([2]; 24 h, phenotypic descriptors) | SOMULE DESCRIPTORS @ 10 µM, 72 h ([3]; 72 h, phenotypic descriptors)
1 | CCC(C)C(c1nc2ccccc2n1Cc1cn(-c2ccccc2F)nn1)N1C(=O)c2ccccc2C1=O (stereo not shown) [6v, 2-(1-(1-((1-(2-Fluorophenyl)-1H-1,2,3-triazol-4-yl)methyl)-1H-benzo[d]imidazol-2-yl)-2-methylbutyl)isoindoline-1,3-dione] | > 100 | > 100 | 0 | 0 | 0 | 0 | 0 | 0 | 0 | 0 | 0 | 0 | 0 | 0 |  |  | 
2 | CCC(C)C(c1nc2ccccc2n1Cc1cn(-c2ccc(F)cc2F)nn1)N1C(=O)c2ccccc2C1=O (stereo not shown) [6w, 2-(1-(1-((1-(2,4-Difluorophenyl)-1H-1,2,3-triazol-4-yl)methyl)-1H-benzo[d]imidazol-2-yl)-2-methylbutyl)isoindoline-1,3-dione] | > 100 | > 100 | 0 | 0 | 2 | 2 | 2 | 2 | 0 | 0 | 0 | 0 | 2 | 2 | Unc, on sides | Unc, on sides | pD50
